Measured values published in BindingDB's records for doi:10.1016/j.bmc.2008.11.020 (Astellas Pharma, 2008).

Legend:
[1] = Antagonist activity at mouse CCR4 receptor expressed in mouse B300-19 cells assessed as CCL22-induced chemotaxis
[2] = Antagonist activity at human CCR4 receptor expressed in mouse B300-19 cells assessed as CCL22-induced chemotaxis

| IC50 [1] [µM] | IC50 [2] [µM] | SMILES |
| --- | --- | --- |
| 0.43 | 0.085 | COc1cc2nc(N3CCC(N4CCCC(O)C4)CC3)nc(Nc3ccc(Cl)cc3)c2cc1OC (stereo unspecified) [1'-{4-[(4-Chlorophenyl)amino]-6,7-dimethoxyquinazolin-2-yl}-1,4'-bipiperidin-3-ol] |
| 0.14 | 0.45 | COc1cc2nc(N3CCC(N4CCCC(CO)C4)CC3)nc(NCc3ccc(Cl)cc3)c2cc1OC (stereo unspecified) [(1'-{4-[(4-Chlorobenzyl)amino]-6,7-dimethoxyquinazolin-2-yl}-1,4'-bipiperidin-3-yl)methanol] |
| 0.039 | 0.14 | COc1cc2nc(N3CCC(N4CCCCC4)CC3)nc(NC3CCCCCC3)c2cc1OC [N-cycloheptyl-6,7-dimethoxy-2-(4-(piperidin-1-yl)piperidin-1-yl)quinazolin-4-amine] |
| 0.019 | 0.1 | COc1cc2nc(N3CCC(N4CCCC(CO)C4)CC3)nc(NC3CCCCCC3)c2cc1OC (stereo unspecified) [{1'-[4-(Cycloheptylamino)-6,7-dimethoxyquinazolin-2-yl]-1,4'-bipiperidin-3-yl}methanol] |

Continued, compound first:

| SMILES | IC50 [1] [µM] | IC50 [2] [µM] |
| --- | --- | --- |
| COc1cc2nc(N3CCC(N4CCCC(CO)C4)CC3)nc(NCCc3ccc(Cl)cc3)c2cc1OC (stereo unspecified) [1'-(4-{[2-(4-Chlorophenyl)ethyl]amino}-6,7-dimethoxyquinazolin-2-yl)-1,40-bipiperidin-3-yl]methanol] | 0.39 |  |
| COc1cc2nc(N3CCC(N4CCCC(CO)C4)CC3)nc(Nc3ccc(Cl)cc3)c2cc1OC (stereo unspecified) [(1'-{4-[(4-Chlorophenyl)amino]-6,7-dimethoxyquinazolin-2-yl}-1,4'-bipiperidin-3-yl)methanol] | 0.058 | 0.023 |
| COCC1CCCN(C2CCN(c3nc(Nc4ccc(Cl)cc4)c4cc(OC)c(OC)cc4n3)CC2)C1 (stereo unspecified) [N-(4-Chlorophenyl)-6,7-dimethoxy-2-[3-(methoxymethyl)-1,4'-bipiperidin-1'-yl]quinazolin-4-amine] | 0.23 | 0.064 |
| COc1cc2nc(N3CCC(N4CCCC(OC)C4)CC3)nc(Nc3ccc(Cl)cc3)c2cc1OC (stereo unspecified) [N-(4-chlorophenyl)-6,7-dimethoxy-2-(3-methoxy-1,4'-bipiperidin-1'-yl)quinazolin-4-amine] | 0.42 | 0.51 |
| COc1cc2nc(N3CCC(N4CCOC(CO)C4)CC3)nc(Nc3ccc(Cl)cc3)c2cc1OC (stereo unspecified) [[4-(1-{4-[(4-Chlorophenyl)amino]-6,7-dimethoxyquinazolin-2-yl}piperidin-4-yl)morpholin-2-yl]methanol] |  | 0.62 |
